From patent US20260091086A1, “POLYPEPTIDE COMBINATIONS AND USES THEREOF” (MEDIMMUNE LIMITED, priority 2024, published 2026)

Key:
[1] = molecular target: T1, rat calcitonin receptor (Rattus norvegicus, UniProt P32214); assay: Target engagement estimate (unbound Cmax / unbound in vitro potency), calcitonin receptor; conditions: DACRA 10 nmol/kg vs LAA 30 nmol/kg
T1 construct: expressed in transfected cells; host or cells: HEK293
T1 sequence (P32214 25-516): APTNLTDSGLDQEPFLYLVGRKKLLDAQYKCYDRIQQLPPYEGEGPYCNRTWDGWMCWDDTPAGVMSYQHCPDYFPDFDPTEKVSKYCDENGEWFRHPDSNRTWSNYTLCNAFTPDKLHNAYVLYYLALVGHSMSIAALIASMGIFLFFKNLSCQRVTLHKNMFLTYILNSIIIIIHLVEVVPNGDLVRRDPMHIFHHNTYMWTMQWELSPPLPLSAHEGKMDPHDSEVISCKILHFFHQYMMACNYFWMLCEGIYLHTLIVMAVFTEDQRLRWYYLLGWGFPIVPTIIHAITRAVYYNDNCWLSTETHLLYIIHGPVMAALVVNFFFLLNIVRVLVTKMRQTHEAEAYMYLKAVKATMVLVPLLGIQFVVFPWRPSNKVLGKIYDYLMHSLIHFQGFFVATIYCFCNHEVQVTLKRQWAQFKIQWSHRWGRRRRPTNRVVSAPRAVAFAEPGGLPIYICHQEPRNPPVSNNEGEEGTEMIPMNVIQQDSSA
Experimental: Target engagement was estimated in the following way for each compound. The maximum concentration (Cmax) after subcutaneous injection was measured in separate rat pharmacokinetic studies and was dose-adjusted to the tested dose levels when appropriate, assuming dose linearity. Plasma protein binding was determined in vitro using 3B Pharmaceutical's Escalate Equilibrium Shift Assay or an in-house Surface Plasmon Resonance (SPR) assay. Peptide in vitro potency was determined via HTRF CAMP accumulation assay using HEK293 cells recombinantly expressing the rat calcitonin receptor or rat amylin receptor (calcitonin receptor plus RAMP3) in saline buffer containing 0.1% bovine serum albumin. The in vitro potencies (IC50s) for amylin and calcitonin were adjusted to unbound values by taking into account the albumin concentration in the assay and fraction unbound data, according to an established method (Wan H and Bergström F (2007), High Throughput Screening of Drug-Protein Binding in Drug Discovery, Journal of Liquid Chromatography & Related Technologies, 30:5, 681-700; doi: 10.1080/10826070701190989). Finally, the target engagement was calculated as the unbound Cmax divided by the unbound IC50, both for amylin and calcitonin. […] Uncertainty of parameter estimates was determined by bootstrapping, sampling single measurements randomly with replacement within each experiment (N=500). […]

[2] = tested on: AMY3R/CTR; assay: Relative potency ratio, cAMP accumulation assays with 0.1% BSA, rat receptors; format: cell-based; conditions: 0.1% bovine serum albumin, n ≥ 5; potencies relative to pramlintide 100%
Experimental: Target engagement was estimated in the following way for each compound. The maximum concentration (Cmax) after subcutaneous injection was measured in separate rat pharmacokinetic studies and was dose-adjusted to the tested dose levels when appropriate, assuming dose linearity. Plasma protein binding was determined in vitro using 3B Pharmaceutical's Escalate Equilibrium Shift Assay or an in-house Surface Plasmon Resonance (SPR) assay. Peptide in vitro potency was determined via HTRF CAMP accumulation assay using HEK293 cells recombinantly expressing the rat calcitonin receptor or rat amylin receptor (calcitonin receptor plus RAMP3) in saline buffer containing 0.1% bovine serum albumin. The in vitro potencies (IC50s) for amylin and calcitonin were adjusted to unbound values by taking into account the albumin concentration in the assay and fraction unbound data, according to an established method (Wan H and Bergström F (2007), High Throughput Screening of Drug-Protein Binding in Drug Discovery, Journal of Liquid Chromatography & Related Technologies, 30:5, 681-700; doi: 10.1080/10826070701190989). Finally, the target engagement was calculated as the unbound Cmax divided by the unbound IC50, both for amylin and calcitonin. The Emax model was defined as aversion=E0+Emax×(ENG^h/(ENG^h+ED50^h)), where E0 is the baseline aversion, Emax is the maximum induced aversion, ENG is the receptor engagement, and h is the slope (Hill) parameter. Parameter estimation was performed according to a maximum likelihood approach with an additive error model, incorporating data from all compounds simultaneously. Uncertainty of parameter estimates was determined by bootstrapping, sampling single measurements randomly with replacement within each experiment (N=500). Numeric analyses were performed in MATLAB (R2023b; The MathWorks, Natick, MA). The aversion data are given as mean and standard error (N=9-11 per group). In this experiment, the LAA/SARA1 was that of SEQ ID NO: 11, SARA2 was eloralintide, DACRA1 was cagrilintide, and DACRA2 was petrelintide.

[3] = tested on: AMY3R/CTR; assay: Relative potency ratio, cAMP accumulation assays with 0.1% BSA, human receptors; format: cell-based; conditions: 0.1% bovine serum albumin, n ≥ 5; potencies relative to pramlintide 100%
[4] = tested on: High-fat diet (DIO) fed rats; assay: Example 9: 4-week LAA or DACRA monotherapy in DIO rats; format: in vivo, rat; conditions: for BW reduction compared to vehicle / reduction of cumulative food intake: 4 weeks; for proportion of body weight loss that was fat-mass specific: FIG. 8C
From the text: Study 1 Design: High-fat diet (DIO) fed rats were used to profile LAA or DACRA monotherapy to evaluate food intake, body weight-lowering and body composition effects in a 4-week study. In this experiment, the LAA was that of SEQ ID NO: 11 and the DACRA was cagrilintide.

calcitonin engagement, fold more than LAA [1]: 2-3 fold
Relative potency ratio (AMY3R/CTR), Rat [2]: 0.01
Relative potency ratio (AMY3R/CTR), Human [3]: 0.08
Substance: cagrilintide [DACRA]
BW reduction compared to vehicle ([4]; 1 nmol/kg): −3±0.6%
reduction of cumulative food intake ([4]; 1 nmol/kg): −7.1±2.1 % of vehicle
BW reduction compared to vehicle ([4]; 3 nmol/kg): −5.3±1.1%
reduction of cumulative food intake ([4]; 3 nmol/kg): −16±2.5 % of vehicle
BW reduction compared to vehicle ([4]; 10 nmol/kg): −8.8±1.4%
reduction of cumulative food intake ([4]; 10 nmol/kg): −23.9±3.5 % of vehicle
BW reduction compared to vehicle ([4]; 20 nmol/kg): −11.6±0.9%
reduction of cumulative food intake ([4]; 20 nmol/kg): −23.7±1.1 % of vehicle
fat-mass loss ([4]; end of study, 10 nmol/kg): -15.5 ± 6.0 g
proportion of body weight loss that was fat-mass specific ([4]; end of study, 10 nmol/kg): 54%
proportion of body weight loss that was fat-mass specific ([4]; end of study, 20 nmol/kg): 61%
lean mass ([4]; end of study, FIG. 8B): Lean mass was preserved in the LAA groups, unlike in the DACRA groups
